Legend:
Type in all cases: in vivo, Coptotermes formosanus
[1] = system: C. formosanus workers; assay: Treated sand when untreated sand is an alternative; details: for Survival (mean % ± SE) day 12: Colony WB; for Survival (mean % ± SE) day 12 / Survival (% ± SE) day 12: treated and untreated sand; for Survival (% ± SE) day 12: Colony E
Description: To further test the repellency of 2′-acetonaphthone, the three-chambered transparent plastic containers described in Example 5 were used. Sand was treated, allowed to dry from the solvent, and wetted with DDH2O as described in Example 5. Treated sand was placed in one of the side chambers, and the other side chamber received an equal amount of untreated sand. The concentrations of 2′-acetonaphthone used were 4.16, 8.33, 16.67, 33.33 and 66.67 mg/kg sand. Each concentration and the control had five replicate containers. Weighed balsa wood slices (0.159 cm×3.5 cm×6.0 cm each) were placed on the surface of both treated and untreated sand, and were wetted with 1 ml of DDH2O. Termites (200 workers and 20 soldiers) from colony WB were released in the middle chamber. On days 2, 3, 4 and 7, the bottom of each container was scanned, and tunnel areas measured as above. On day 12, the number of living termites in each container was recorded. The wood slices were then cleaned, dried and re-weighed to calculate food consumption.
The above experiment was repeated with new concentrations of 2′-acetonaphthone: 8.75, 17.5, 35, 70 and 140 mg/kg sand. Termites from colony E were tested, and the food source was changed to filter paper. Tunnels were scanned and measured on days 2, 5, 8 and 12. The data were analyzed as described in Example 5, and paired t-tests were used to compare tunneling and feeding activities between treated and untreated sides.

[2] = system: C. formosanus workers; assay: Repellency, choice of treated and untreated filter paper in three-chambered containers; details: preliminary study; 23 μg/cm^2
[3] = system: C. formosanus workers and soldiers; assay: Treated wood slices as sole food source; details: colonies C and WB combined
Description: To assay the effect of 2′-acetonaphthone on termites when added to a sole food source, acute and cumulative toxicities of 2′-acetonaphthone-treated filter paper (Whatman #2) and balsa wood (Ochroma lagopus Swartz) slices (2.3 cm×4.0 cm) were evaluated. Seven concentrations (0, 1, 10, 50, 100, 500, and 1000 mg/l) were prepared in 100 ml ethanol. Six filter papers and six wood slices were soaked in each concentration for 4 h; control filter papers and wood slices were soaked only in ethanol. After treatment, the food sources were kept overnight at ambient conditions for solvent evaporation. Eighty-four plastic containers (5.5 cm diameter×3.7 cm height) were provided with 22 g of wetted sand (20 g sand (fine blasting sand #4, Cement Products Inc., Baton Rouge, La.) mixed with 2 ml DDH2O). Then either a filter paper or a wood slice was separately placed to fit on the surface of the wetted sand and wetted with DDH2O (250 μl). Into each container, fifty workers and 20 soldiers were placed on the surface of the filter paper or wood slice. For each concentration and food sourse, three replicates received termites from colony C, and three replicates received termites from colony WB. The containers were covered and incubated for 10 days at 27.4° C. and 70% RH. Containers were monitored everytwo days to ensure suitable moisture. On days 1, 5 and 10, the number of living workers and soldiers were counted. An average percent survival was calculated for each treatment. (See Tables 2 and 3).

CC(=O)c1ccc2ccccc2c1 [2′-acetonaphthone]
Survival (mean % ± SE) day 12 ([1]; 4.16 mg/kg): 48.75 ± 2.78 ab %
Survival (mean % ± SE) day 12 ([1]; 8.33 mg/kg): 36.00 ± 4.76 bc %
Survival (% ± SE) day 12 ([1]; 8.75 mg/kg): 61.60 ± 2.79 abc %
Survival (mean % ± SE) day 12 ([1]; 16.67 mg/kg): 35.25 ± 3.47 bc %
Survival (% ± SE) day 12 ([1]; 17.5 mg/kg): 67.20 ± 1.36 ab %
Survival (mean % ± SE) day 12 ([1]; 33.33 mg/kg): 17.33 ± 7.22 c %
Survival (% ± SE) day 12 ([1]; 35.0 mg/kg): 59.0 ± 7.72 bc %
Survival (mean % ± SE) day 12 ([1]; 66.67 mg/kg): 24.25 ± 11.99 c %
Survival (% ± SE) day 12 ([1]; 70.0 mg/kg): 53.0 ± 2.34 c %
Survival (% ± SE) day 12 ([1]; 140.0 mg/kg): 51.60 ± 3.97 c %
concentration with significantly reduced survival after 12 days ([1]; colony E): ≥ 35.0 mg/kg sand
concentration significantly reducing overall tunneling (treated plus untreated sand) ([1]; colony E, 12 days): ≥ 35.0 mg/kg
concentration with significant reduction in consumption of filter paper on treated sand ([1]; colony E, 12 days): ≥ 8.75 mg/kg
concentration with significantly less total food consumption ([1]; colony E, only this treatment): 140 mg/kg
concentration with significant reduction in tunneling activity in treated sand ([1]; colony E, up to 12 days): ≥ 17.5 mg/kg
concentration with significantly reduced survival on day 12 ([1]; colony WB): ≥ 8.33 mg/kg
concentration with significantly reduced consumption of wood slices on treated sand ([1]; colony WB, 12 days): ≥ 8.33 mg/kg
concentration with significant difference in tunneling activity between untreated and treated sand ([1]; colony WB, days 2, 3, 4, 7): ≥ 16.67 mg/kg sand
feeding activity after 8 days exposure [2]: negligible
worker distribution [2]: workers avoided the treated side
Percent survival ([3]; wood slices 1 mg/l, Day 1, Soldier): 93.33 ± 1.67 a %
Percent survival ([3]; wood slices 1 mg/l, Day 1, Worker): 85.0 ± 5.29 a %
Percent survival ([3]; wood slices 1 mg/l, Day 5, Soldier): 60.0 ± 13.54 a %
Percent survival ([3]; wood slices 1 mg/l, Day 5, Worker): 55.33 ± 12.87 a %
Percent survival ([3]; wood slices 1 mg/l, Day 10, Soldier): 47.50 ± 11.61 a %
Percent survival ([3]; wood slices 1 mg/l, Day 10, Worker): 52.67 ± 12.55 a %
Percent survival ([3]; wood slices 10 mg/l, Day 1, Soldier): 86.67 ± 4.41 a %
Percent survival ([3]; wood slices 10 mg/l, Day 1, Worker): 83.33 ± 5.03 a %
Percent survival ([3]; wood slices 10 mg/l, Day 5, Soldier): 54.17 ± 11.14 a %
Percent survival ([3]; wood slices 10 mg/l, Day 5, Worker): 63.67 ± 11.13 a %
Percent survival ([3]; wood slices 10 mg/l, Day 10, Soldier): 46.67 ± 12.36 a %
Percent survival ([3]; wood slices 10 mg/l, Day 10, Worker): 50.67 ± 8.79 a %
Percent survival ([3]; wood slices 50 mg/l, Day 1, Soldier): 85.0 ± 5.0 a %
Percent survival ([3]; wood slices 50 mg/l, Day 1, Worker): 86.67 ± 5.26 a %
Percent survival ([3]; wood slices 50 mg/l, Day 5, Soldier): 48.33 ± 10.38 a %
Percent survival ([3]; wood slices 50 mg/l, Day 5, Worker): 65.0 ± 13.51 a %
Percent survival ([3]; wood slices 50 mg/l, Day 10, Soldier): 39.17 ± 8.41 a %
Percent survival ([3]; wood slices 50 mg/l, Day 10, Worker): 49.67 ± 10.23 a %
Percent survival ([3]; wood slices 100 mg/l, Day 1, Soldier): 90.0 ± 2.89 a %
Percent survival ([3]; wood slices 100 mg/l, Day 1, Worker): 88.67 ± 3.33 a %
Percent survival ([3]; wood slices 100 mg/l, Day 5, Soldier): 55.83 ± 11.94 a %
Percent survival ([3]; wood slices 100 mg/l, Day 5, Worker): 56.67 ± 12.15 a %
Percent survival ([3]; wood slices 100 mg/l, Day 10, Soldier): 45.0 ± 9.58 a %
Percent survival ([3]; wood slices 100 mg/l, Day 10, Worker): 47.67 ± 10.97 a %
Percent survival ([3]; wood slices 500 mg/l, Day 1, Soldier): 80.83 ± 10.44 a %
Percent survival ([3]; wood slices 500 mg/l, Day 1, Worker): 84.67 ± 2.41 a %
Percent survival ([3]; wood slices 500 mg/l, Day 5, Soldier): 17.50 ± 7.61 b %
Percent survival ([3]; wood slices 500 mg/l, Day 5, Worker): 54.33 ± 8.01 a %
Percent survival ([3]; wood slices 500 mg/l, Day 10, Soldier): 4.17 ± 2.38 b %
Percent survival ([3]; wood slices 500 mg/l, Day 10, Worker): 30.67 ± 9.18 a %
Percent survival ([3]; wood slices 1000 mg/l, Day 1, Soldier): 84.17 ± 7.24 a %
Percent survival ([3]; wood slices 1000 mg/l, Day 1, Worker): 86.67 ± 3.53 a %
Percent survival ([3]; wood slices 1000 mg/l, Day 5, Soldier): 2.50 ± 2.49 b %
Percent survival ([3]; wood slices 1000 mg/l, Day 5, Worker): 13.0 ± 9.85 b %
Percent survival ([3]; wood slices 1000 mg/l, Day 10, Soldier): 0.0 ± 0.0 b %
Percent survival ([3]; wood slices 1000 mg/l, Day 10, Worker): 5.67 ± 4.27 b %

— patent US7351744B2, “Naphthalene derivatives as termite repellents and toxicants” (Board of Supervisors of Louisiana State University and …, priority 2003, dated 2008)
